Laboratory results: US20250066286A1, “COMPOSITIONS OF (Z)-ENDOXIFEN AND METHODS OF ENRICHMENT THEREOF” (Atossa Therapeutics, Inc., priority 2022, published 2025)

Assay: Stability of (Z)-Endoxifen in acetone (HPLC peak table over time)
Type: physicochemical
Conditions: for E-form, RT 14.58, RRT 0.96 / HPLC peak RT 13.84, RRT 0.91 / HPLC peak RT 20.32, RRT 1.34 / HPLC peak RT 20.51, RRT 1.35 / HPLC peak RT 21.68, RRT 1.43 / HPLC peak RT 22.88, RRT 1.51 / HPLC peak RT 27.15, RRT 1.79 / HPLC peak RT 27.21, RRT 1.80 / HPLC peak RT 27.45, RRT 1.81 / HPLC peak RT 27.88, RRT 1.84 / HPLC peak RT 4.37, RRT 0.28 / Z-form, RT 15.13, RRT 1.00: acetone at reflux (56° C.)

Compound `CC/C(=C(\c1ccc(O)cc1)c1ccc(OCCNC)cc1)c1ccccc1` [(Z)-endoxifen, (Z)-4-(1-(4-(2-(methylamino)ethoxy)phenyl)-2-phenylbut-1-enyl)phenol] has an E-form, RT 14.58, RRT 0.96 (3 hr) of 0.54%, an HPLC peak RT 13.84, RRT 0.91 (3 hr) of 0.05% and an HPLC peak RT 20.32, RRT 1.34 (3 hr) of 0.37%. For the same compound, the HPLC peak RT 20.51, RRT 1.35 (3 hr) was 0.06%, the HPLC peak RT 21.68, RRT 1.43 (3 hr) was 0.16% and the HPLC peak RT 22.88, RRT 1.51 (3 hr) was 0.13%. The HPLC peak RT 27.15, RRT 1.79 (3 hr) was 0.03%, the HPLC peak RT 27.21, RRT 1.80 (3 hr) was 0.05% and the HPLC peak RT 27.45, RRT 1.81 (3 hr) was 0.24%. For the same compound, the HPLC peak RT 27.88, RRT 1.84 (3 hr) was 0.04%, the “HPLC peak RT 4.37, RRT 0.28” value (3 hr, in % (unit assumed)) was 0.96 and the “Z-form, RT 15.13, RRT 1.00” value (3 hr, in % (unit assumed)) was 96.67. It also gave an E-form, RT 14.58, RRT 0.96 (19 hr) of 1.01%, an HPLC peak RT 13.84, RRT 0.91 (19 hr) of 0.04% and an HPLC peak RT 20.32, RRT 1.34 (19 hr) of 0.12%. It also gave an HPLC peak RT 20.51, RRT 1.35 (19 hr) of 0.04%, an HPLC peak RT 21.68, RRT 1.43 (19 hr) of 0.14% and an HPLC peak RT 22.88, RRT 1.51 (19 hr) of 0.09%. The HPLC peak RT 27.15, RRT 1.79 (19 hr) was 0.02%, the HPLC peak RT 27.21, RRT 1.80 (19 hr) was 0.04% and the HPLC peak RT 27.45, RRT 1.81 (19 hr) was 0.22%. For the same compound, the HPLC peak RT 27.88, RRT 1.84 (19 hr) was 0.04%, the “HPLC peak RT 4.37, RRT 0.28” value (19 hr, in % (unit assumed)) was 5.74 and the “Z-form, RT 15.13, RRT 1.00” value (19 hr, in % (unit assumed)) was 91.92. For the same compound, the E-form, RT 14.58, RRT 0.96 (27 hr) was 1.53%, the HPLC peak RT 13.84, RRT 0.91 (27 hr) was 0.04% and the HPLC peak RT 20.32, RRT 1.34 (27 hr) was 0.09%. It also gave an HPLC peak RT 20.51, RRT 1.35 (27 hr) of 0.1%, an HPLC peak RT 21.68, RRT 1.43 (27 hr) of 0.15% and an HPLC peak RT 22.88, RRT 1.51 (27 hr) of 0.06%. For the same compound, the HPLC peak RT 27.15, RRT 1.79 (27 hr) was 0.03%, the HPLC peak RT 27.21, RRT 1.80 (27 hr) was 0.04% and the HPLC peak RT 27.45, RRT 1.81 (27 hr) was 0.22%. The HPLC peak RT 27.88, RRT 1.84 (27 hr) was 0.04%, the “HPLC peak RT 4.37, RRT 0.28” value (27 hr, in % (unit assumed)) was 7.93 and the “Z-form, RT 15.13, RRT 1.00” value (27 hr, in % (unit assumed)) was 89.05. It also gave an E-form, RT 14.58, RRT 0.96 (43 hr) of 5.33%, an HPLC peak RT 13.84, RRT 0.91 (43 hr) of 0.04% and an HPLC peak RT 20.32, RRT 1.34 (43 hr) of 0.13%. The HPLC peak RT 20.51, RRT 1.35 (43 hr) was 0.05%, the HPLC peak RT 21.68, RRT 1.43 (43 hr) was 0.13% and the HPLC peak RT 22.88, RRT 1.51 (43 hr) was 0.05%. The HPLC peak RT 27.15, RRT 1.79 (43 hr) was 0.04%, the HPLC peak RT 27.21, RRT 1.80 (43 hr) was 0.05% and the HPLC peak RT 27.45, RRT 1.81 (43 hr) was 0.15%. For the same compound, the HPLC peak RT 27.88, RRT 1.84 (43 hr) was 0.04%, the “HPLC peak RT 4.37, RRT 0.28” value (43 hr, in % (unit assumed)) was 12.64 and the “Z-form, RT 15.13, RRT 1.00” value (43 hr, in % (unit assumed)) was 80.36. The E-form, RT 14.58, RRT 0.96 (T0) was 0.3%, the HPLC peak RT 13.84, RRT 0.91 (T0) was 0.04% and the HPLC peak RT 20.32, RRT 1.34 (T0) was 0.04%. The HPLC peak RT 20.51, RRT 1.35 (T0) was 0.12%, the HPLC peak RT 21.68, RRT 1.43 (T0) was 0.15% and the HPLC peak RT 22.88, RRT 1.51 (T0) was 0.03%. The HPLC peak RT 27.15, RRT 1.79 (T0) was 0.03%, the HPLC peak RT 27.21, RRT 1.80 (T0) was 0.05% and the HPLC peak RT 27.45, RRT 1.81 (T0) was 0.17%. The HPLC peak RT 27.88, RRT 1.84 (T0) was 0.04%, the “HPLC peak RT 4.37, RRT 0.28” value (T0, in % (unit assumed)) was 0.05 and the “Z-form, RT 15.13, RRT 1.00” value (T0, in % (unit assumed)) was 98.67. For the same compound, the E-form, RT 15.40, RRT 0.95 (acetone, 40° C., 4 hr) was 0.78%, the HPLC peak RT 3.14, RRT 0.19 (acetone, 40° C., 4 hr) was 0.15% and the “HPLC peak RT 4.25, RRT 0.26” value (acetone, 40° C., 4 hr) was 0.57. The HPLC peak RT 14.68, RRT 0.90 (acetone, 40° C., 4 hr) was 0.04%, the HPLC peak RT 17.69, RRT 1.09 (acetone, 40° C., 4 hr) was 0.08% and the “HPLC peak RT 20.47, RRT 1.26” value (acetone, 40° C., 4 hr) was 0.04. For the same compound, the HPLC peak RT 20.80, RRT 1.28 (acetone, 40° C., 4 hr) was 0.15%, the HPLC peak RT 21.56, RRT 1.33 (acetone, 40° C., 4 hr) was 0.08% and the HPLC peak RT 21.83, RRT 1.34 (acetone, 40° C., 4 hr) was 0.1%. For the same compound, the HPLC peak RT 22.68, RRT 1.39 (acetone, 40° C., 4 hr) was 0.1%, the HPLC peak RT 22.76, RRT 1.40 (acetone, 40° C., 4 hr) was 0.08% and the “Z-form, RT 16.25, RRT 1.00” value (acetone, 40° C., 4 hr, in % (unit assumed)) was 97.28. For the same compound, the E-form, RT 15.40, RRT 0.95 (acetone, 40° C., 20 hr) was 1.03%, the HPLC peak RT 3.14, RRT 0.19 (acetone, 40° C., 20 hr) was 0.11% and the “HPLC peak RT 4.25, RRT 0.26” value (acetone, 40° C., 20 hr) was 2.00. For the same compound, the HPLC peak RT 14.68, RRT 0.90 (acetone, 40° C., 20 hr) was 0.04%, the HPLC peak RT 17.69, RRT 1.09 (acetone, 40° C., 20 hr) was 0.08% and the “HPLC peak RT 20.47, RRT 1.26” value (acetone, 40° C., 20 hr) was 0.05.
